Tests used:
HOZ mice [1] = test: Histopathology (H&E) of HOZ mouse liver and kidney; type: in vivo; details: 10 mg/kg i.p. in saline, 24 hours
Procedure: Two further slices (˜2 mm thickness) were placed in 10% neutral buffered formalin (10% NBF) overnight then processed, sectioned and stained with haematoxylin and eosin (H&E).
Initially, one HOZ mouse was given 10 mg/kg body weight cadmium chloride i.p. One control animal received the vehicle solution, isotonic saline, i.p. and an untreated animal was used as a second control. The animals were killed 24 hours after dosing and liver, kidney and brain were collected for H&E staining and lacZ histology.
Sections of HOZ mouse liver and kidney were prepared and stained according to standard procedures (H&E). (a, b) Naive control; (c, d) Saline treated; (e, f) Cadmium chloride treated (10 mg/kg i.p. in saline). All images in FIG. 5 are of H&E stained sections: (a, c and e) are of liver; b, d and f are of kidney (original magnification ×100).

HO-1 mRNA = test: RT-PCR assay of endogenous HO-1 mRNA in HOZ mouse tissue; type: in vivo
Procedure: Analysis of the expression of endogenous genes was carried out by RT-PCR using the ABI Prism 7000 system. For RT-PCR analysis, frozen tissue samples were homogenised using a Polytron PT-mr2100 homogeniser in 1 ml TRI reagent (Sigma). Total RNA for each sample was isolated according to the manufacturer's instructions and RNA pellets stored at −70° C. under 75% ethanol. Each of the RNA pellets was resuspended in RNAase/DNAase free dH2O and quantified using a Genequant RNA/DNA calculator (Amersham). First strand cDNA synthesis was performed for each sample using 2 μg of total RNA and the Protoscript First Strand cDNA Synthesis Kit (New England Biolabs) according to the manufacturer's protocol. Additional steps to degrade RNA following cDNA synthesis were performed. Each sample was diluted to 50 μl with RNAase/DNAase-free dH2O and stored at −20° C.
In order to measure variation in p21 or Haemoxygenase-1 (HO-1) expression it was necessary to include an internal control. Amplification of β-Actin cDNA provides a standard to control for variations on RNA content between samples. The final reactions therefore consisted of two separate reactions (target gene and β-Actin cDNA amplification) performed simultaneously in a single tube. The PCR conditions used were 10 minutes at 95° C. followed by 40 cycles of denaturing for 15 seconds at 95° C. and annealing/extending for 1 minute at 60° C. The primers and probe for the p21 and HO-1 amplification reactions were obtained from ABI (Assay-On-Demand kit). These methods have been pre-validated for the standard conditions used on the ABI Prism 7000 system.
The effects of cadmium chloride on endogenous HO-1 expression were determined by RT-PCR assay of HO-1 mRNA levels in liver and kidney tissue from HOZ mice. […] The bars show relative concentrations of HO-1 mRNA assayed by RT-PCR in brain, kidney and liver tissue of mice that had received 10 mg/kg cadmium chloride 24 hours earlier compared with mice that had received saline and untreated mice. […]

HOZ mice [2] = test: Plasma ALT as a marker of hepatotoxicity in HOZ mice; type: in vivo, mouse
Procedure: Terminal blood samples were taken by cardiac puncture into lithium/heparin-coated tubes for preparation of plasma. Tissues, as defined in each protocol, were routinely dissected as follows:
Following removal into tubes suitable for plasma preparation, venous blood samples were mixed on a roller for 10 minutes then cooled on ice. Red blood cells were removed by centrifugation at 2,000 rpm for 10 minutes at 8-10° C. The supernatant (plasma) was transferred to a second tube and stored at −70° C. until required for analysis.
Plasma samples were analysed for appropriate analytes on a Roche autoanalyser (Cobas Integra 400) according to the manufacturer's instructions. The routine markers measured included: (for liver damage) plasma alanine aminotransferase (ALT), aspartate aminotransferase (AST) and alkaline phosphatase (ALP) and (for kidney damage) plasma creatinine and blood urea nitrogen (BUN).
Two plasma enzyme markers, ALT and AST, were used as markers of hepatotoxicity in HOZ mice treated with cadmium chloride or sodium arsenite. The results of this analysis for HOZ mice treated with 10 mg/kg cadmium chloride are shown in Table 1 and for HOZ mice treated with 2-8 mg/kg cadmium chloride or 13 mg/kg sodium arsenite in Tables 2 and 3.

With [Cl][Cd][Cl] [Cadmium Chloride, cadmium chloride] the “kidney histology (H&E)” value (HOZ mice [1]) was “occasional necrotic proximal convoluted tubules (PCTs)”, the “liver histology (H&E)” value (HOZ mice [1]) was “acute toxicity manifesting as hepatocyte vacuolation and areas of necrosis associated with deposits of erythrocytes” and the “HO-1 mRNA levels in kidney and liver compared to controls” value (HO-1 mRNA; 10 mg/kg, after 24 hours) was “very substantially elevated”. The “HO-1 mRNA in liver versus dose” value (HO-1 mRNA; both sexes, 0-8 mg/kg, 8 hours) was “clear dose-response relationship”, the “HO-1 mRNA levels in liver” value (HO-1 mRNA; highest doses, 24 hours) was “slightly elevated” and the ALT (HOZ mice [2]; HOZ mouse, 10 mg/kg i.p., 24 hours) was 1834.8 U/L. For the same compound, the “Plasma ALT” value (HOZ mice [2]; female, 1 mg/kg, 8 hours) was 33.3 u/L, the “Plasma ALT” value (HOZ mice [2]; female, 1 mg/kg, 24 hours) was 28.2 u/L and the “Plasma ALT” value (HOZ mice [2]; female, 2 mg/kg, 8 hours) was 22.8 u/L. The “Plasma ALT” value (HOZ mice [2]; female, 2 mg/kg, 24 hours) was 26.1 u/L, the “Plasma ALT” value (HOZ mice [2]; female, 4 mg/kg, 8 hours) was 55.6 u/L and the “Plasma ALT” value (HOZ mice [2]; female, 4 mg/kg, 24 hours) was 23.7 u/L. The “increase in plasma ALT” value (HOZ mice [2]; female, 4 mg/kg, after 8 hours) was 2.4 fold, the “increase in ALT” value (HOZ mice [2]; female, 4 mg/kg, second statement, printed as after 8 hours) was at most 2 fold and the “Plasma ALT” value (HOZ mice [2]; female, 8 mg/kg, 8 hours) was 3930.6 u/L. For the same compound, the “Plasma ALT” value (HOZ mice [2]; female, 8 mg/kg, 24 hours) was 7010.4 u/L, the “increase in plasma ALT” value (HOZ mice [2]; female, 8 mg/kg, after 8 hours) was 170 fold and the “increase in plasma ALT” value (HOZ mice [2]; female, 8 mg/kg, after 24 hours) was 275 fold. For the same compound, the “Plasma ALT” value (HOZ mice [2]; male, 1 mg/kg, 8 hours) was 70.3 u/L, the “Plasma ALT” value (HOZ mice [2]; male, 1 mg/kg, 24 hours) was 33.1 u/L and the “Plasma ALT” value (HOZ mice [2]; male, 2 mg/kg, 8 hours) was 21.7 u/L. For the same compound, the “Plasma ALT” value (HOZ mice [2]; male, 2 mg/kg, 24 hours) was 19.4 u/L, the “Plasma ALT” value (HOZ mice [2]; male, 4 mg/kg, 8 hours) was 50.4 u/L and the “Plasma ALT” value (HOZ mice [2]; male, 4 mg/kg, 24 hours) was 74.7 u/L. The “Plasma ALT” value (HOZ mice [2]; male, 8 mg/kg, 8 hours) was 50.1 u/L, the “Plasma ALT” value (HOZ mice [2]; male, 8 mg/kg, 24 hours) was 306.3 u/L and the “increase in ALT” value (HOZ mice [2]; male, 8 mg/kg, 24 hours after treatment) was 7.9 fold. For the same compound, the “increase in ALT and AST” value (HOZ mice [2]; male, all other doses and time points) was at most 2 fold.

From patent US20100138935A1, “Detection of cellular stress” (priority 2004, published 2010)
